The values below come from the OligoGym collection.

Where “and” joins values, the source holds several entries; their conditions need not be identical. Identical values can stand only once. After the bases stand the sugars from the 5' end (letter, count) and the backbone: PS all phosphorothioate, else s phosphorothioate and o phosphodiester by linkage. Methylation of C is not given here. e = 2'-O-(2-methoxyethyl) (MOE); k = constrained ethyl (cEt); d = 2'-deoxy (DNA)

One data set has as its target IRF4. The following applies: ASO, MM.1R, 0.074 µM.
For the sequence TTCCAGGTCATTTGAC (sugars k3 d10 k3, PS), the target mRNA inhibition was found to be 2%.

Staying with this data set, now noted: ASO, MM.1R, 0.222 µM.
TTCCAGGTCATTTGAC (sugars k3 d10 k3, PS): the target mRNA inhibition turned out to be 3%.

The data set is the same for the next values; noted with them: ASO, MM.1R, 0.666 µM.
TTCCAGGTCATTTGAC (sugars k3 d10 k3, PS): the target mRNA inhibition turned out to be 9%.

The same data set, now with this note: ASO, MM.1R, 1 µM.
In the case of TGTTCAGAAACCCTCA (sugars k3 d10 k3, PS), the target mRNA inhibition is -15%. In the case of TGTTTTAAGAGGCGAC (sugars k3 d10 k3, PS), the target mRNA inhibition was 3%. The same measure, in the same setting: to TTAAAGGGTAAGCACT (sugars k3 d10 k3, PS) belongs -18%; to TTACCGATGCTTCAAG (sugars k3 d10 k3, PS), 16% and 19%. The same measure, in the same setting: to TTACTAATTCCATAGA (sugars k3 d10 k3, PS) belongs 3%; to TTAGGCACATCAATGT (sugars k3 d10 k3, PS), 12% and 17%; to “TTATATACTGGTTGGT (sugars k2 d9 e3 k2, PS)”, 40%. As to “TTATATACTGGTTGGT (sugars kdddddddddkekeke, PS)”, the target mRNA inhibition stood at 20%. Same read-out and setting: to “TTATGTTAGCCAATTC (sugars k2 d9 e3 k2, PS)” belongs 14% and 9%; to TTATGTTAGCCAATTC (sugars k3 d10 k3, PS), 9% and 22%; to “TTCATGTAAAGTCTGC (sugars kddddddddddkekek, PS)”, 2% and -18%. As to “TTCATGTAAAGTCTGC (sugars kkdddddddddkekek, PS)”, the target mRNA inhibition is 10% and 12%. Same read-out and setting: the result for TTCATTAGAAAGCCCT (sugars k3 d10 k3, PS) reads -22%; that for TTCTAGTCGCGCAAGT (sugars k3 d10 k3, PS), -7%. With “TTGATGTGATAGCTGA (sugars kkdddddddddkdkdk, PS)”, the target mRNA inhibition was 36%. With “TTGGTTGGCTGGTCTT (sugars k2 d9 e3 k2, PS)”, the target mRNA inhibition was 50%.

“TTGGTTGGCTGGTCTT (sugars kddddddddddkekek, PS)”: the target mRNA inhibition was determined as 34%. Still for that read-out and setting: the result for “TTGGTTGGCTGGTCTT (sugars kkdddddddddkekek, PS)” reads 65%.

Take TTGTTTGCAAGCTATA (sugars k3 d10 k3, PS): the target mRNA inhibition is 36%. As for TTTAAGAGGCGACTGC (sugars k3 d10 k3, PS), the target mRNA inhibition is -100%.

Regarding “TTTATGTTAGCCAATT (sugars kddddddddddkekek, PS)”, the target mRNA inhibition is 0% and -12%. Still for that read-out and setting: the result for “TTTATGTTAGCCAATT (sugars kkdddddddddekeke, PS)” reads 12% and -13%. Still for that read-out and setting: the result for TTTCTAATGGTGCTCC (sugars k3 d10 k3, PS) reads 4%. Take TTTCTACAAGGTCTGA (sugars k3 d10 k3, PS): the target mRNA inhibition was determined as 3%.

The same data set, now with this note: ASO, MM.1R, 2 µM.
TTCCAGGTCATTTGAC (sugars k3 d10 k3, PS): the target mRNA inhibition came to 27%.

The same data set, now with this note: ASO, SK-MEL-28, 4 µM.
For TTAAAATATCGCCCAT (sugars k3 d10 k3, PS), the target mRNA inhibition stood at 32%.

On to TTAAACAGCACTCAGA (sugars k3 d10 k3, PS), for which the target mRNA inhibition came out at 33%.

Regarding TTAAATAAGATCCCAC (sugars k3 d10 k3, PS), the target mRNA inhibition came out at 23%. Still for that read-out and setting: the result for TTAACCATTACTTAGA (sugars k3 d10 k3, PS) reads 45%. As to TTAAGCTAAACTCCTA (sugars k3 d10 k3, PS), the target mRNA inhibition worked out at 10%. The same measure, in the same setting: the result for TTACCATTTTCACAAG (sugars k3 d10 k3, PS) reads 8%; that for TTAGAAAGCCCTCACC (sugars k3 d10 k3, PS), -16%; that for TTAGAGAGGAGAATTT (sugars k3 d10 k3, PS), 35%. On the same count and under the same terms, the result for TTAGCAATTCCTGTTG (sugars k3 d10 k3, PS) reads 20%; that for TTAGGATAATATACCC (sugars k3 d10 k3, PS), 52%; that for TTCAACACACTGTCTG (sugars k3 d10 k3, PS), -31%. Consider TTCAACTTGTGACCCA (sugars k3 d10 k3, PS), for which the target mRNA inhibition was 49%. The same measure, in the same setting: to TTCAAGAGGAACTAGT (sugars k3 d10 k3, PS) belongs 6%; to TTCAGTGCTCACTGCT (sugars k3 d10 k3, PS), 69%.

TTCCAGCTTAGTCACC (sugars k3 d10 k3, PS): the target mRNA inhibition came out at 37%. With TTCCAGGTCATTTGAC (sugars k3 d10 k3, PS), the target mRNA inhibition was 66%.

For the sequence TTCCATTGGAGGAGGG (sugars k3 d10 k3, PS), the target mRNA inhibition came to 28%.

As for TTGCAAGCTATATTAA (sugars k3 d10 k3, PS), the target mRNA inhibition is 34%. Take TTGCATAGGCATCCTT (sugars k3 d10 k3, PS): the target mRNA inhibition came out at 47%. The same measure, in the same setting: to TTGCATCTATAAGATG (sugars k3 d10 k3, PS) belongs 31%; to TTGCATGGCTAATGAA (sugars k3 d10 k3, PS), 42%.

As to TTGGCTCCTTTTTTGG (sugars k3 d10 k3, PS), the target mRNA inhibition came out at 13%.

For TTGTACAGGACAGGTA (sugars k3 d10 k3, PS), the target mRNA inhibition came to 28%. Same read-out and setting: the result for TTGTTCCACCCCTGGG (sugars k3 d10 k3, PS) reads 47%. The same measure, in the same setting: the result for TTTAAGGCCCTGTCAA (sugars k3 d10 k3, PS) reads -17%.

TTTACACTGGATCTGA (sugars k3 d10 k3, PS): the target mRNA inhibition stood at 25%.

As for TTTACCTGGTATTGCT (sugars k3 d10 k3, PS), the target mRNA inhibition came out at 38%.

Consider TTTATAACCGGTAGAG (sugars k3 d10 k3, PS), for which the target mRNA inhibition came out at 54%. On the same count and under the same terms, to TTTGTACGGGTCTGAG (sugars k3 d10 k3, PS) belongs 20%. Turning to TTTTACCTGGTATTGC (sugars k3 d10 k3, PS), the target mRNA inhibition is -2%.

For the sequence TTTTTAGTTCATACCC (sugars k3 d10 k3, PS), the target mRNA inhibition was 41%. Same read-out and setting: the result for TTTTTCTCACCATGGC (sugars k3 d10 k3, PS) reads 74%.

Another data set deals with MALAT1. As to conditions: ASO, A431, 0.005 µM.
As to AAAAAGTAGTTCTTCG (sugars k3 d10 k3, PS), the target mRNA inhibition was determined as 16%. The same measure, in the same setting: the result for AAAAGGCTCGATGGAA (sugars k3 d10 k3, PS) reads 11%; that for AAACCGATTATGGATC (sugars k3 d10 k3, PS), 3%. On the same count and under the same terms, to AAACTTGCTTACACAC (sugars k3 d10 k3, PS) belongs 25%; to AAAGAGTAACTACCAG (sugars k3 d10 k3, PS), 22%.

Turning to AAAGATATTGTGCTGT (sugars k3 d10 k3, PS), the target mRNA inhibition turned out to be 11%. Still for that read-out and setting: the result for AAAGTGGTTGCCCGCT (sugars k3 d10 k3, PS) reads 15%; that for AAATCGCACTGGCTCC (sugars k3 d10 k3, PS), 6%. As for AAATTTTTCTACCGTT (sugars k3 d10 k3, PS), the target mRNA inhibition is -3%. Same read-out and setting: to AACAGTACTGCATTTA (sugars k3 d10 k3, PS) belongs 36%; to AACATATTTTGCCCCC (sugars k3 d10 k3, PS), 22%; to AACATTTGGCCTACTC (sugars k3 d10 k3, PS), 42%.

In the case of AACCGATTATGGATCA (sugars k3 d10 k3, PS), the target mRNA inhibition came out at 49%.

As for AACCGTAACAGGCCAC (sugars k3 d10 k3, PS), the target mRNA inhibition turned out to be 50%. With AACCTTCATGACCCTA (sugars k3 d10 k3, PS), the target mRNA inhibition came to 20%.

Regarding AACGAAGAGATACCTG (sugars k3 d10 k3, PS), the target mRNA inhibition turned out to be 12%. Same read-out and setting: to AACTAAATCATTGGGA (sugars k3 d10 k3, PS) belongs -1%.

With AACTCCAAGAACTAGC (sugars k3 d10 k3, PS), the target mRNA inhibition is 30%. On the same count and under the same terms, the result for AACTCCACAGCTCTTA (sugars k3 d10 k3, PS) reads 41%; that for AAGACCTCGACACCAT (sugars k3 d10 k3, PS), 44%; that for AAGAGTAACTACCAGC (sugars k3 d10 k3, PS), 6%. On the same count and under the same terms, the result for AAGATCGCCTTCAAAT (sugars k3 d10 k3, PS) reads 49%; that for AAGATGCTAGCTTGGC (sugars k3 d10 k3, PS), 24%; that for AAGCACCGCTTGAGAT (sugars k3 d10 k3, PS), 8% and 13%. On the same count and under the same terms, the result for AAGCCAAGCCGCCTGC (sugars k3 d10 k3, PS) reads 29%; that for AAGCGAATGGCTTTGT (sugars k3 d10 k3, PS), 6%.

With AAGCGAGTTCAAGTGG (sugars k3 d10 k3, PS), the target mRNA inhibition came to 15%. Still for that read-out and setting: the result for AAGGATCCAAGCTACT (sugars k3 d10 k3, PS) reads 8%; that for AAGGTTACCATAAGTA (sugars k3 d10 k3, PS), 46%. On the same count and under the same terms, to AAGTCTCGGGCTGCAG (sugars k3 d10 k3, PS) belongs 4%; to AAGTTACATGTTCCCA (sugars k3 d10 k3, PS), 39%.

As for AATAAGCACTTATCCC (sugars k3 d10 k3, PS), the target mRNA inhibition is 31%. The same measure, in the same setting: to AATACTTGTCTTAGCT (sugars k3 d10 k3, PS) belongs 41%; to AATAGTACTATAGCAT (sugars k3 d10 k3, PS), 15%; to AATATCTTAGTAACCT (sugars k3 d10 k3, PS), 19%. On the same count and under the same terms, the result for AATCAAGTCAAGCTCC (sugars k3 d10 k3, PS) reads 14%; that for AATCACAAATACGACT (sugars k3 d10 k3, PS), 23%; that for AATCACCTACAACTTT (sugars k3 d10 k3, PS), 26%.

Regarding AATCACCTTCGGTTTA (sugars k3 d10 k3, PS), the target mRNA inhibition is -1%.
